# From US8008258B2, “Cop 1 for treatment of inflammatory bowel diseases” (Yeda Research and Development Co. Ltd., priority 2003, dated 2011)
# Marks after values point to notes of the source that are not given here.
# What was measured:
# [1] = tested on: TNF-α secretion by spleen and MLN cells; experiment: TNF-α secretion by spleen and MLN cells (ELISA); type: cell-based, mice
# Protocol: FIGS. 5A-5C show the effect of GA on TNF-α secretion in different mouse strains. The responses of normal mice, colitis-induced mice, and colitis-induced mice treated with GA orally or parenterally daily are compared in the BALB/c (FIG. 5A), (SJL/JxBALB/c)F1 (FIG. 5B), and SJL/J (FIG. 5C) strains. Cells from spleens and mesenteric lymph nodes (MLN) were cultured, 7 days after disease induction, with immobilized anti-CD3 (5 μg/ml). After 24 hours, supernatants from six culture wells were pooled and TNF-α was measured by ELISA in duplicates. Results are expressed as TNF-α concentration (pg/ml±SD) and represent one of two similar experiments, using pooled cells from 3-5 mice in each group. # Indicates significant increase in TNF-α in colitic mice in comparison to normal mice. * Indicates significant decrease in TNF-α induced by GA treatment in comparison to untreated colitis induced mice.
# Reactivity assays. Spleens and mesenteric lymph nodes (MLN) cells (0.5×10^6 cell/well) were cultured with either GA (50 μg/ml), colon extract (200 μg/ml), immobilized anti-CD3 (5 μg/ml), or PBS control, in a final volume of 250 μl/well (6 wells for each antigen). For proliferation assay, cells were cultured in RPMI 1640 with 10% FCS, pulsed with 1 μCi of [3H] thymidine after 48 h incubation, and harvested 12 h later. For cytokine (TNF-α and TGF-β) assay, cells were cultured in serum-free medium (DCCM-1), supernatants were collected after 72 h, and tested for the cytokines by ELISA using mAbs pairs (R&D Systems, Minneapollis, Minn.) according to the manufacturer's instruction.
# [2] = tested on: TNBS-induced colitis; experiment: TNBS-induced colitis in (SJL/JxBALB/c)F1 mice, various GA treatment modes; type: in vivo; details: for Decrease in the total macroscopic score versus untreated mice: 5 days after disease induction; for Decrease in the total macroscopic damage versus untreated mice: fed with GA
# Protocol: Induction of cholitis in mice. TNBS-colitis was induced by rectal instillation of 2,4,6-trinitrobenzene sulfonic acid 5% (w/v), mixed with an equal volume of ethanol, into anesthetized mice (100 μl/mouse). Each treatment group included 6-12 mice. Mice that died before day 4 were considered as treatment casualties and were not taken into consideration.
# Assessment of colitis. Weight changes and survival were monitored daily. […]
# Macroscopic colonic scoring. Gross colonic damage was graded according to Reuter et al. (1996), using the combined values of the four standard macroscopic parameters: degree of colonic ulcerations (scale from 0—completely normal, to 10—most severe); intestinal and peritoneal adhesions (0 to 2); diarrhea (0 to 1); and thickness (0 to 1). The total score is the arithmetic sum of the four scores. The evaluation was performed in a blind procedure.
# Microscopic scoring. Proximal, medial, and distal portions of colon were fixed in 10% phosphate-buffered formalin. Paraffin-embedded sections were stained with hematoxylin and eosin. The degree of histological damage and inflammation was graded according to Elson et al. (1996) using the combined values of the four microscopic parameters: extent (scale from 0—completely normal, to 2—involving more than one segment); inflammation (0—none to 3—severe); damage (0 to 3—severe transmural); and regeneration (0—complete re-eptihelization to 3—none). The total score is the arithmetic sum of the four scores. The evaluation was performed in a blind procedure.
# Oral treatment—250 μg/day in PBS, fed by gastric intubation with an 18-gauge stainless steel feeding needle. Unless otherwise stated, feedings were performed on days-7, -5, -3, -1, 0, 2, 4 and 6, relative to the day of TNBS instillation. […]
# To explore whether the beneficial effect of GA on TNBS-induced colitis is restricted to oral administration in the BALB/c strain or represents a more general effect, we studied the ability of GA administered by different routes and dosages to inhibit TNBS-induced colitis in two additional strains of mice.
# [3] = scoring 5 days after disease induction, GA injected daily (from day −7), 2.5 mg/mouse SC
# [4] = scoring 5 days after disease induction, GA injected daily (from day −14), 2.5 mg/mouse SC
# [5] = scoring 5 days after disease induction, GA injected once day −14, 5 mg/mouse SC in ICFA
# [6] = scoring 5 days after disease induction, GA oral every other day (from day −7), 0.25 mg, 8 feedings
# [7] = scoring 11 days after disease induction, GA injected daily (from day −7), 2.5 mg/mouse SC
# [8] = scoring 11 days after disease induction, GA injected daily (from day −14), 2.5 mg/mouse SC
# [9] = scoring 11 days after disease induction, GA injected once day −14, 5 mg/mouse SC in ICFA
# [10] = scoring 11 days after disease induction, GA oral every other day (from day −7), 0.25 mg, 8 feedings
substance,measurement,setting,value
glatiramer acetate [GA],Effect of GA treatment on TNF-α levels,[1]; SJL/J mice parenterally treated daily with GA,drastic decrease in TNF-α levels
same,Effect of GA treatment on TNF-α secretion in response to anti-CD3,"[1]; all strains, both spleens and MLN, all instances except MLN of SJL/J mice treated orally with GA",substantial reduction in TNF-α
same,TNF-α secretion on in vitro stimulation,[1]; in vitro stimulation of cells by GA (50 μg/ml),did not result in secretion of TNF-α
same,Decrease in the total macroscopic score versus untreated mice,[2]; GA daily injections from day −7,3.5 fold
same,Decrease in the total macroscopic score versus untreated mice,[2]; GA daily injections from day −14,4.6 fold
same,Complete weight restoration,[2]; GA injected daily (from day −7),≤ 6 days
same,Weight loss (of original weight),"[2]; GA injected daily (from day −7), 1 day after induction",4%
same,Mortality,[2]; daily injection of GA (starting both 7 and 14 days before disease induction),completely prevented mortality
same,Reduction in the histological score,[2]; daily injections (starting either 7 or 14 days before disease induction),6.6 fold
same,Inhibition of weight loss caused by TNBS colitis,[2]; daily-injected mice,major significant inhibition of weight loss
same,Decrease in the total macroscopic damage versus untreated mice,[2]; observed 5 days after TNBS inoculation,1.8 fold
same,Decrease in the total macroscopic damage versus untreated mice,[2]; observed 11 days after TNBS inoculation,1.7 fold
same,Reduction in the histological score,[2]; oral treatment,1.8 fold
same,Mortality rate,"[2]; oral treatment with GA, by day 8",30%
same,Inhibition of weight loss caused by TNBS colitis,[2]; orally-treated mice,"modest, statistically insignificant, inhibition of weight loss"
same,Macroscopic scoring of colon damage: Adhesion (max 2),[2]; [3],0.8
same,Macroscopic scoring of colon damage: Diarrhea (max 1),[2]; [3],0.4
same,Macroscopic scoring of colon damage: Thickness (max 1),[2]; [3],0.1
same,Macroscopic scoring of colon damage: Total Score (max 14),[2]; [3],2.7*
same,Macroscopic scoring of colon damage: Ulceration (max 10),[2]; [3],1.4
same,Macroscopic scoring of colon damage: Adhesion (max 2),[2]; [4],0.4
same,Macroscopic scoring of colon damage: Diarrhea (max 1),[2]; [4],0.2
same,Macroscopic scoring of colon damage: Thickness (max 1),[2]; [4],0.1
same,Macroscopic scoring of colon damage: Total Score (max 14),[2]; [4],2.1*
same,Macroscopic scoring of colon damage: Ulceration (max 10),[2]; [4],1.4
same,Macroscopic scoring of colon damage: Adhesion (max 2),[2]; [5],1.4
same,Macroscopic scoring of colon damage: Diarrhea (max 1),[2]; [5],0.3
same,Macroscopic scoring of colon damage: Thickness (max 1),[2]; [5],0.3
same,Macroscopic scoring of colon damage: Total Score (max 14),[2]; [5],6.4
same,Macroscopic scoring of colon damage: Ulceration (max 10),[2]; [5],4.4
same,Macroscopic scoring of colon damage: Adhesion (max 2),[2]; [6],1.0
same,Macroscopic scoring of colon damage: Diarrhea (max 1),[2]; [6],0.3
same,Macroscopic scoring of colon damage: Thickness (max 1),[2]; [6],0.3
same,Macroscopic scoring of colon damage: Total Score (max 14),[2]; [6],5.4
same,Macroscopic scoring of colon damage: Ulceration (max 10),[2]; [6],3.8
same,Macroscopic scoring of colon damage: Adhesion (max 2),[2]; [7],0.0
same,Macroscopic scoring of colon damage: Diarrhea (max 1),[2]; [7],0.0
same,Macroscopic scoring of colon damage: Thickness (max 1),[2]; [7],0.0
same,Macroscopic scoring of colon damage: Ulceration (max 10),[2]; [7],0.1
same,Macroscopic scoring of colon damage: Adhesion (max 2),[2]; [8],0.0
same,Macroscopic scoring of colon damage: Diarrhea (max 1),[2]; [8],0.0
same,Macroscopic scoring of colon damage: Thickness (max 1),[2]; [8],0.0
same,Macroscopic scoring of colon damage: Ulceration (max 10),[2]; [8],0.1
same,Macroscopic scoring of colon damage: Adhesion (max 2),[2]; [9],1.0
same,Macroscopic scoring of colon damage: Diarrhea (max 1),[2]; [9],0.2
same,Macroscopic scoring of colon damage: Thickness (max 1),[2]; [9],0.2
same,Macroscopic scoring of colon damage: Total Score (max 14),[2]; [9],3.7
same,Macroscopic scoring of colon damage: Ulceration (max 10),[2]; [9],2.3
same,Macroscopic scoring of colon damage: Adhesion (max 2),[2]; [10],0.6
same,Macroscopic scoring of colon damage: Diarrhea (max 1),[2]; [10],0.1
same,Macroscopic scoring of colon damage: Thickness (max 1),[2]; [10],0.2
same,Macroscopic scoring of colon damage: Total Score (max 14),[2]; [10],3.2
same,Macroscopic scoring of colon damage: Ulceration (max 10),[2]; [10],2.3
same,Effect on macroscopic scores versus untreated controls,[2]; single injection of GA as a depot dose in ICFA,small and statistically insignificant
